Measurements: paper PMC10761396, “Evaluation of new alternative methods for the identification of estrogenic, androgenic and steroidogenic effects: a comparative in vitro/in silico study” (Archives of Toxicology, 2023)
Converted amounts (≈) assume the structure as drawn. Where two headings read alike, the source gives them in different places.

Tests used:
ER [1] = experiment: ToxCast ER assays and final ToxCast call; details: for Final "true" call (ToxCast) ER: from active ToxCast assays, cytotoxicity, ToxCast Pathway Model and CERAPP Potency Level
From the text: (§1) A rich source of data can be found in the EPA's ToxCast database (US EPA). This contains ED data for ~ 1800 chemicals in more than 700 high-throughput assay endpoints that cover a range of high-level cell responses. The US EPA is running an Endocrine Disruption Screening Program (EDSP), with the aim of prioritising chemicals using high-throughput screening methods and computational toxicology approaches to evaluate thousands of chemicals for ED activities. The OECD framework for ED assessment (OECD [2018]) requires animal testing at higher levels, where relevant in vitro alternatives are missing e.g. for developmental, reproductive, neurological and immune effects. However, such follow-up testing is not possible for the cosmetics industry especially in the EU due to the complete animal testing ban which came into force in March 2013 (EU [2009]). Even for other industries, animal models are not suitable for assessing ED effects due to issues relating to ethics, capacity, speed and relevance (Patisaul et al. [2018]). Therefore, chemicals which cannot be evaluated using in vivo method must be assessed using alternative methods e.g. in silico and in vitro methods listed in Levels 1 and 2 of the framework described in the OECD 150 test guideline (OECD [2018]).
(§2) The performance of different in silico models for ED effects tends to be evaluated on single model for a single effect, such as ER or AR binding, agonism or antagonism (normally by the developer), or a limited number of models using multiple chemicals (Weyrich et al. [2022]). Multi-organisation collaborations have also evaluated multiple models for a specific effect e.g. ER (Mansouri et al. [2016]) and AR (Mansouri et al. [2020]) effects. Therefore, we have conducted a side-by-side comparison of multiple different in silico models covering three pathways in ED, namely ER, AR and aromatase inhibition and compared these with ToxCast-derived final calls, as well as with results from in vitro assays. The efficiency of the in silico models was evaluated as a metric for the ability of the in silico model to generate concrete predictions. […] In vivo data were available for some but not all chemicals; therefore, an evaluation of the performance of the methods was made by comparing the derived overall calls from in silico models with those from the ToxCast database. The final call for each chemical evaluated in the ToxCast assays was made by considering the active-flagged assays and the corresponding cytotoxicity levels, the ToxCast Pathway Model (Browne et al. [2015]) and the CERAPP Potency Level (Mansouri et al. [2016]) for ER effects and the ToxCast Pathway Model (Kleinstreuer et al. [2017]) for AR effects (see Online Resource 1 Supplementary Tables 2, 4 and 6 for the outcome of the ER, AR and aromatase ToxCast assays, additional literature and final calls for each chemical and target).

H295R cells = experiment: H295R steroidogenesis assay (oestrogen and androgen production); format: cell-based, human; details: for minimal effective concentration: Homo sapiens, NCI-H295R, 48 h
Procedure: The in vitro H295R Steroidogenesis Assay is based on the human adenocarcinoma cell line, NCI-H295R, in which the human steroidogenesis pathway is fully functional (OECD 2022). The effect of the test chemical on the production of 17β-estradiol and testosterone is measured using ERα CALUX and AR CALUX technology.
The test chemical was tested in two independent assays, each in triplicate.

ER [2] = test system: ER; design: method as in Mansouri et al. 2016; details: ref Mansouri et al. 2016; cited from earlier work
aromatase [3] = experiment: ToxCast aromatase assays (TOX21_Aromatase_Inhibition) and final ToxCast call; format: cell-based; details: for ToxCast result: aromatase overall ToxCast call; for Final "true" call (ToxCast) Aromatase inhibition: from ToxCast assays
From the text: as §2
Aromatase represents only one enzyme involved in steroidogenesis (the conversion of androgens to oestrogens); therefore, the aromatase assay detects effects on 17β-oestradiol production only. […] It is a cell-based assay in which MCF-7 cells are incubated with the test chemical for 24 h before measuring aromatase activities indirectly via a luciferase-based reporter endpoint which is dependent on the binding of the oestradiol–ER complex to the oestrogen response element. A decrease in luciferase activity can occur as a result of direct inhibition of aromatase (preventing the production of oestradiol) or by preventing oestradiol from binding to the ER and thus the binding to the oestrogen RE which initiates the production of luciferase (Lui et al. [2008]).

AR [4] = details: cited from earlier work; for ToxCast Pathway Model (AUC): AR pathway model, ref Kleinstreuer et al (2017) 10.1021/acs.chemrestox.6b00347
aromatase [5] = test system: aromatase; design: method as in US EPA ToxCast; details: ref US EPA ToxCast; cited from earlier work
ER [6] = test system: ER; design: method as in US EPA ToxCast; details: ref US EPA ToxCast, cited from earlier work
AR [7] = experiment: ToxCast AR assays and final ToxCast call; details: for Final "true" call (ToxCast): AR effects, from active assays, cytotoxicity and pathway model
From the text: as §1, §2

Solubility = format: physicochemical
ER [8] = test system: ER; design: method as in Browne, et al (2015); details: ref Browne, et al (2015), cited from earlier work; for ToxCast Pathway Model (AUC): as agonist where given, value above 0.1 = significant interaction
AR [9] = test system: AR; design: method as in ToxCast; details: ref ToxCast, cited from earlier work; for ToxCast conclusion from assays result: AR sheet; for ToxCast 1: (Active assays), number of positive assays / assays run: ToxCast AR assays
MCF-7 cells = details: cited from earlier work
AR [10] = test system: AR; design: method as in Park et al. [2021]; details: ref Park et al. [2021]; cited from earlier work
human (non-selective) ER = experiment: ER radioligand ([3H]estradiol) receptor-binding assay; details: single-dose screening, 10 µM
Procedure: The chemicals were tested for their ability to bind to different targets. […] Chemicals were incubated at 10 µM with cells overexpressing ER or AR for 24 h at 4°C, after which, the binding of the radiolabeled ligand ([^3H]estradiol for ER and [^3H]methyltrienolone for AR) was measured by liquid scintillation counting. An increase or decrease higher than 50% were considered to represent significant effects. Four chemicals were tested in additional incubations at several concentrations up to the maximum soluble concentration for IC50 or EC50 determination for the associated target. Receptor binding was calculated as a % inhibition of the binding of a radioactively labeled ligand specific for each target.
Each test chemical was tested in a single assay in duplicate.

[11] = target: T1, human recombinant CYP19A1 (Homo sapiens, UniProt P11511); experiment: Recombinant enzyme aromatase activity inhibition assay; format: biochemical; details: follow-up dose–response assay
T1 sequence (P11511 1-503): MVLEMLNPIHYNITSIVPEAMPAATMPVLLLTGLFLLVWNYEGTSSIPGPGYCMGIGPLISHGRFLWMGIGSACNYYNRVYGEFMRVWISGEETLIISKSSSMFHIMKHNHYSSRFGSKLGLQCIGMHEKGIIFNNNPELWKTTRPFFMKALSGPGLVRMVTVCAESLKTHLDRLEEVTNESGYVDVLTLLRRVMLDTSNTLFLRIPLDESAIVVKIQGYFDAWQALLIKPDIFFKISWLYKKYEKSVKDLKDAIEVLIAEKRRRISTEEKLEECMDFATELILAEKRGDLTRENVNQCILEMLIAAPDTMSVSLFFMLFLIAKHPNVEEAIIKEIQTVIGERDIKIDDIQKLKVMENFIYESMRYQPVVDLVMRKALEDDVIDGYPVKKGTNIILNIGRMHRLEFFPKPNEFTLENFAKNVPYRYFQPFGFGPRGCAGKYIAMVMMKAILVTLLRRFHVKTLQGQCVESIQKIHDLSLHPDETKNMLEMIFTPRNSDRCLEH
Procedure: An aromatase inhibition assay was also included in the in vitro assay panel. This enzyme – otherwise known as CYP19A1 - is responsible for converting androgens into estrogens (Blakemore and Naftolin 2016; Bulun 2014); therefore, chemicals that inhibit aromatase activity can lead to reduced estrogen production, which can affect reproductive and developmental processes (Kragie 2002; Tiboni and Ponzano 2016).
The metabolite, estradiol, was measured by time-resolved fluorescence according to the method described previously (Ji et al. 2014). Enzyme inhibition was calculated as a % inhibition of control enzyme activity.

[12] = UPITT_HCI_U2OS_AR_TIF2_Nucleoli_Antagonist

Row | Molecule | Final "true" call (ToxCast) ER (ER [1]) | CERAPP Potency Level (ER [2]) | ToxCast result (aromatase [3]) | Final "true" call (ToxCast) Aromatase inhibition (aromatase [3]) | ToxCast Pathway Model (AUC) (AR [4]) | ToxCast (Aromatase assays), positive/total (aromatase [5]) | ToxCast 1: (Active assays), positive/total ER assays (ER [6]) | ToxCast conclusion from assays result (ER [6]) | Final "true" call (ToxCast) (AR [7]) | ToxCast Pathway Model (AUC) (ER [8]) | ToxCast Pathway Model interaction (ER [8]) | ToxCast conclusion from assays result (AR [9]) | ToxCast 1: (Active assays), number of positive assays / assays run (AR [9]) | efficacy (assays Comments) (AR [9]; [12]) | other results
1 | CCCCOC(=O)c1ccccc1C(=O)OCc1ccccc1 [BBP, benzyl butyl phthalate] | Positive for agonism | Very weak antagonist | Negative | Negative | AUC = 0, then there is no significant interaction. | 0/2 positive | 14/21 positive | Endocrine Disruption Potential.Significant Estrogen Receptor activity seen | Inconclusive | 0.18 | significant interaction | Endocrine Disruption Potential.Significant Estrogen Receptor activity seen | 2/14 positive | Boarderline: less than 50% efficacy (48.9%) | ToxCast result (ER) (ER [1]; overall call from ToxCast data (Supplementary Table 2)): ER agonist only; minimal effective concentration (H295R cells; read-out: Steroidogenesis Androgenicity LEC): > 10 µM; minimal effective concentration (H295R cells; read-out: Steroidogenesis Estrogenicity LEC): > 10 µM; solubility (Solubility): ~10 µM (≈ 3.12 µg/mL); efficacy (assays Comments) (AR [9]; TOX21_AR_LUC_MDAKB2_Antagonist_0.5nM_R1881): Boarderline: less than 50% efficacy (38.4%)
2 | C=CCc1ccc(O)c(OC)c1 [eugenol] | – | – | – | – | – | – | – | – | – | – | – | – | – | – | effect on MCF-7 cells (MCF-7 cells): cytotoxicity
3 | isoeugenol | Inconclusive | Weak agonist/ antagonist | Negative | Negative | AUC = = 0, then there is no significant interaction. | 0/2 positive | 9/19 positive | Endocrine Disruption Potential.Significant Estrogen Receptor activity seen | Negative | 0.0124 | no significant interaction | Endocrine Disruption Potential.Significant Estrogen Receptor activity seen | 1/14 positive | Boarderline: less than 50% efficacy (48.8%) | LEC, oestrogen production (H295R cells; increase): 10 µM; AR antagonism and impact of metabolism (AR [10]): exhibits AR antagonism which is decreased by metabolism; ToxCast Pathway model, interaction with the AR (AR [4]; ref Kleinstreuer et al. [2017]): insignificant; ToxCast 1: (Comments), efficacy (ER [6]; borderline: less than 50% efficacy): Boarderline: less than 50% efficacy; ToxCast result (AR [7]; AR overall call from Supplementary Table 4): Negative; Final "true" call (ToxCast) AR (AR [7]; from ToxCast assays and ToxCast Pathway Model): Negative; inhibition of control specific binding to the ER (human (non-selective) ER): less than -25%; aromatase inhibition outcome [11]: positive; ToxCast 1: (assays Comments) (AR [9]; [12]): Only highest concentration above the baseline
